From US20150250173A1, “PESTICIDALLY ACTIVE MIXTURES COMPRISING ANTHRANILAMIDE COMPOUNDS” (BASF SE, priority 2012, published 2015)
Like-named read-outs stand apart in the source and are kept apart here.

How the values were obtained:
Type in all cases: cell-based
Conditions in all cases: single compound, 7 days
Pyricularia oryzae = system: Pyricularia oryzae
Septoria tritici = test: Activity against leaf blotch on wheat caused by Septoria tritici (Septtr), microtiter plate
Botrytis cinerea = test: Activity against the grey mold Botrytis cinerea in the microtiterplate test (Botrci)
Phytophthora infestans = system: Phytophthora infestans

## O=C(Nc1ccccc1-c1ccc(Cl)cc1)c1cccnc1Cl [Boscalid]
Pyricularia oryzae; 16 ppm
  Observed efficacy: 10

## CO/N=C(/C1=NOCCO1)c1ccccc1Oc1ncnc(Oc2ccccc2Cl)c1F [Fluoxastrobin]
Septoria tritici; 0.25 ppm
  Observed efficacy: 70

## CO/C=C(/C(=O)OC)c1ccccc1Oc1cc(Oc2ccccc2C#N)ncn1 [Azoxystrobin]
Pyricularia oryzae; 0.016 ppm
  Observed efficacy: 38

## CCS(CC)=NC(=O)c1cc(Cl)cc(C)c1NC(=O)c1cc(C(F)(F)F)nn1-c1ncccc1Cl [Compound I-11, 2-(3-chloro-2-pyridyl)-N-[2-methyl-4-chloro-6-[(diethyl-λ^4-sulfanylidene)carbamoyl]phenyl]-5-(trifluoromethyl)pyrazole-3-carboxamide]
Pyricularia oryzae; 1 ppm
  Observed efficacy: 0
Pyricularia oryzae; 4 ppm
  Observed efficacy: 3
Pyricularia oryzae; 63 ppm
  Observed efficacy: 10

## CCCN(CCOc1c(Cl)cc(Cl)cc1Cl)C(=O)n1ccnc1 [Prochloraz]
Botrytis cinerea; 0.016 ppm
  Observed efficacy: 14

## Mancozeb
Septoria tritici; 4 ppm
  Observed efficacy: 48

## CO/C=C(/C(=O)OC)c1ccccc1COc1cccc(C(F)(F)F)n1 [Picoxystrobin]
Pyricularia oryzae; 0.063 ppm
  Observed efficacy: 72
Septoria tritici; 0.063 ppm
  Observed efficacy: 53

## OC(Cc1ccccc1Cl)(Cn1nc[nH]c1=S)C1(Cl)CC1 (stereo not shown) [Prothioconazol]
Septoria tritici; 0.063 ppm
  Observed efficacy: 62

## CON=C(C(=O)OC)c1ccccc1CON=C(C)c1cccc(C(F)(F)F)c1 [Trifloxystrobin]
Pyricularia oryzae; 0.016 ppm
  Observed efficacy: 29
Pyricularia oryzae; 0.063 ppm
  Observed efficacy: 29
Septoria tritici; 0.016 ppm
  Observed efficacy: 62

## CCS(CC)=NC(=O)c1cc(Cl)cc(Cl)c1NC(=O)c1cc(C(F)(F)F)nn1-c1ncccc1Cl [Compound I-16, 2-(3-chloro-2-pyridyl)-N-[2,4-dichloro-6-[(diethyl-λ^4-sulfanylidene)carbamoyl]phenyl]-5-(trifluoromethyl)pyrazole-3-carboxamide]
Phytophthora infestans; 16 ppm
  Observed efficacy: 23
Pyricularia oryzae; 1 ppm
  Observed efficacy: 3
Pyricularia oryzae; 4 ppm
  Observed efficacy: 4
Septoria tritici; 4 ppm
  Observed efficacy: 16
Septoria tritici; 63 ppm
  Observed efficacy: 17

## Cc1cc(Cl)cc(C(=O)N=S(C(C)C)C(C)C)c1NC(=O)c1cc(C(F)(F)F)nn1-c1ncccc1Cl [Compound I-21, 2-(3-chloro-2-pyridyl)-N-[2-methyl-4-chloro-6-[(bis-2-propyl-λ^4-sulfanylidene)carbamoyl]phenyl]-5-(trifluoromethyl)pyrazole-3-carboxamide]
Pyricularia oryzae; 1 ppm
  Observed efficacy: 0
Pyricularia oryzae; 4 ppm
  Observed efficacy: 0
Septoria tritici; 4 ppm
  Observed efficacy: 12
Botrytis cinerea; 4 ppm
  Observed efficacy: 0
Botrytis cinerea; 16 ppm
  Observed efficacy: 4

## COC(=O)N(OC)c1ccccc1COc1ccn(-c2ccc(Cl)cc2)n1 [Pyraclostrobin]
Phytophthora infestans; 0.063 ppm
  Observed efficacy: 10
Pyricularia oryzae; 0.004 ppm
  Observed efficacy: 39
Pyricularia oryzae; 0.016 ppm
  Observed efficacy: 49

## Fc1ccc([C@]2(Cn3cncn3)O[C@H]2c2ccccc2Cl)cc1 [Epoxiconazol]
Botrytis cinerea; 0.25 ppm
  Observed efficacy: 59
